The results in this text go back to patent US20190233796A1, “Generation of Inner Ear Cells” (Massachusetts Eye & Ear Infirmary, priority 2006, published 2019).

Structures are written as SMILES.

This experiment relates to Math1-estrogen receptor (ER) fusion protein. Put plainly: Tamoxifen-inducible Math1-estrogen receptor (ER) fusion construct in transfected cells. Type of experiment: cell-based. The conditions noted are these: addition of tamoxifen to the transfected cells. From the text:
This Example describes a system in which administration of tamoxifen, a […], induces expression of Math1. A Math1-estrogen receptor (ER) fusion protein, where the ER has been mutated so that it selectively binds to tamoxifen rather than estrogen, is constitutively expressed. In the absence of tamoxifen, the Math1-ER construct remains quiescent within the cytosol where it is inactivated by heat shock proteins. […] The sequence of Math1 is given above.

`CC/C(=C(\c1ccccc1)c1ccc(OCCN(C)C)cc1)c1ccccc1` [tamoxifen]: the “localization of the Math1-ER construct to the nucleus” value is “dose-dependent localization of the Math1-ER construct to the nucleus”.
